# According to patent US20130267494A1, “1,4-OXAZEPANE DERIVATIVES” (priority 2010, published 2013):
# Counter-ions that a name gives are not always drawn. Like-named read-outs stand apart in the source and are kept apart here.
# What was measured:
# Assay type in all cases: cell-based
# [1] = target: T1, human serotonin transporter (Homo sapiens, UniProt P31645); assay: Inhibitory action on human serotonin transporter ([3H]-5-hydroxytryptamine uptake in CHO cells); details: CHO, compound 1 μM; relative to inhibitory activity of 10 μM Paroxetine as 100%; read-out: inhibitory rate (%)
# T1 construct: expressed in transfected cells
# Source text: (§1) Human serotonin transporter cDNA was amplified from human brain cDNA library by PCR, and inserted into pCRII-TOPO vector (manufactured by Invitrogen). The base sequence was confirmed and modified, and subcloned to pcDNA3.1 vector (manufactured by Invitrogen), whereby a human serotonin transporter expression plasmid was constructed. Human norepinephrine transporter cDNA was purchased from Invitrogen, and the base sequence was confirm and modified, and subcloned to pcDNA3.1 vector, whereby a human norepinephrine transporter expression plasmid was constructed.
# (§2) The monoamine transporter expression plasmids thus prepared were introduced into CHO-K1 cells using FuGENE6 (manufactured by Roche Diagnostics) and according to the attached protocol, whereby each expressing cell was established.
# CHO cells stably expressing a human serotonin transporter were used for the measurement of human serotonin transporter inhibitory activity. Unless particularly indicated, these CHO cells were cultured in a Ham/F12 medium (Invitrogen) containing 10% fetal bovine serum (MOREGATE).
# (§3) The cultured cells that reached almost confluent were rinsed with PBS (Invitrogen), detached with Trypsin/EDTA (Invitrogen), and collected by a centrifugal operation. The obtained cells were counted, and diluted to 3×10^5 cells per 1 mL medium, the mixture was dispensed to a 96 well white plate (Corning) at 100 μL per well, and cultured overnight in a CO2 incubator.
# (§4) Then, an assay buffer (126 mM NaCl, 4.95 mM KCl, 1.26 mM KH2PO4, 1.26 mM MgSO4, 10 mM HEPES, 2.32 mM CaCl2, 5.52 mM Glucose, 0.5% BSA) was prepared, the medium in the cell plate was removed and the assay buffer was added by 80 μL. A test compound was diluted with the assay buffer to a 10-fold concentration of the final concentration, and the mixture was dispensed to a 96 well polypropylene plate. The diluted test compound was dispensed to the cell plate by 10 μL. [3H]-5-Hydroxytryptamine (GE Healthcare) was diluted with the assay buffer to 200 nM, and the mixture was dispensed to the cell plate by 10 μL. At 20 min from [3H]-5-hydroxytryptamine addition, the assay buffer was removed by suction, and the plate was washed twice with 150 μL of PBS (Invitrogen) per well. Microscinti20 (PerkinElmer) was dispensed to each well by 100 μL, and the mixture was stirred for about 30 min. The radioactivity was measured by TopCount (PerkinElmer).
# The inhibitory activity of each compound (10 μM) was calculated as a relative activity value based on the inhibitory activity of 10 μM Paroxetine (serotonin transporter inhibitor) as 100%.
# In addition, the inhibitory activity of each compound (1 μM) was calculated as a relative activity value based on the inhibitory activity of 10 μM Paroxetine (serotonin transporter inhibitor) as 100%.
# [2] = target: T2, human dopamine transporter (Homo sapiens, UniProt Q01959); assay: Inhibitory action on human dopamine transporter ([3H]-dopamine uptake in CHO cells); details: CHO, compound 1 μM; relative to inhibitory activity of 100 μM Nomifensine as 100%; read-out: inhibitory rate (%)
# T2 construct: expressed in transfected cells
# Source text: SRα promoter contained in pTB1411 described in JP-A-H5-076385 was cleaved with restriction enzyme […](manufactured by TAKARA BIO INC.), blunt-ended, further cleaved with restriction enzyme EcoRI (manufactured by TAKARA BIO INC.), and fragmented. On the other hand, pCI vector was cleaved with restriction enzyme BglII (manufactured by TAKARA BIO INC.), blunt-ended with T4 DNA polymerase, and further cleaved with restriction enzyme EcoRI (manufactured by TAKARA BIO INC.). Into this site was inserted an SRa promoter fragment to give pCI-SRa. Then, pCI-SRa was cleaved with restriction enzyme ClaI (manufactured by TAKARA BIO INC.) and blunt-ended. Into this site was inserted a 1.63 Kb fragment obtained by cleaving pGFP-C1 (manufactured by TOYOBO) with restriction enzyme Bsu36I (manufactured by Daiichi Pure Chemicals Co., Ltd.) followed by blunt-ending, whereby pMSRα neo was prepared. Human dopamine transporter cDNA was amplified from human substantia nigra cDNA library by PCR, and inserted into the pCRII vector (manufactured by Invitrogen). The base sequence was confirmed, modified and subcloned to pMSRα neo, whereby a human dopamine transporter expression plasmid was constructed.
# as §2
# CHO cells stably expressing human dopamine transporter were used for the measurement of human dopamine transporter inhibitory activity. Unless otherwise indicated, these CHO cells were cultured in Ham/F12 medium (Invitrogen) containing 10% fetal bovine serum (MOREGATE).
# as §3, with “One day before the assay, the cultured” for “The cultured”, “medium, and” for “medium,”
# as §4, with “On the day of the test, an” for “Then, an”, “μL. [3H]-Dopamine” for “μL. [3H]-5-Hydroxytryptamine”, “nM, cold dopamine was diluted to 10 μM,” for “nM,”, “At 60” for “At 20”, “from [3H]-dopamine” for “from [3H]-5-hydroxytryptamine”
# The inhibitory activity of each compound (10 μM) was calculated as a relative activity value based on the inhibitory activity of 100 μM Nomifensine (dopamine transporter inhibitor) as 100%.
# The inhibitory activity of each compound (1 μM) was m calculated as a relative activity value based on the inhibitory activity of 100 μM Nomifensine (dopamine transporter inhibitor) as 100%.
# [3] = target: T3, human norepinephrine transporter (Homo sapiens, UniProt P23975); assay: Inhibitory action on human norepinephrine transporter ([3H]-norepinephrine uptake in CHO cells); details: CHO, relative to inhibitory activity of 10 μM DMI as 100%
# T3 construct: expressed in transfected cells
# Source text: as §1, §2
# CHO cells stably expressing human norepinephrine transporter were used for the measurement of human norepinephrine transporter inhibitory activity. Unless otherwise indicated, these CHO cells were cultured in Ham/F12 medium (Invitrogen) containing 10% fetal bovine serum (MOREGATE).
# as §3, with “medium, and” for “medium,”
# as §4, with “μL. [3H]-Norepinephrine” for “μL. [3H]-5-Hydroxytryptamine”, “At 45” for “At 20”, “from [3H]-norepinephrine” for “from [3H]-5-hydroxytryptamine”
# The inhibitory activity of each compound (10 μM) was calculated as a relative activity value based on the inhibitory activity of 10 μM DMI (norepinephrine transporter inhibitor) as 100%.
# The inhibitory activity of each compound (1 μM) was calculated as a relative activity value based on the inhibitory activity of 10 μM DMI (norepinephrine transporter inhibitor) as 100%.
# [4] = compound 1 μM, read-out: inhibitory rate (%)
# [5] = read-out: inhibitory rate (%), compound 1 μM
# T2 sequence (Q01959 whole entry): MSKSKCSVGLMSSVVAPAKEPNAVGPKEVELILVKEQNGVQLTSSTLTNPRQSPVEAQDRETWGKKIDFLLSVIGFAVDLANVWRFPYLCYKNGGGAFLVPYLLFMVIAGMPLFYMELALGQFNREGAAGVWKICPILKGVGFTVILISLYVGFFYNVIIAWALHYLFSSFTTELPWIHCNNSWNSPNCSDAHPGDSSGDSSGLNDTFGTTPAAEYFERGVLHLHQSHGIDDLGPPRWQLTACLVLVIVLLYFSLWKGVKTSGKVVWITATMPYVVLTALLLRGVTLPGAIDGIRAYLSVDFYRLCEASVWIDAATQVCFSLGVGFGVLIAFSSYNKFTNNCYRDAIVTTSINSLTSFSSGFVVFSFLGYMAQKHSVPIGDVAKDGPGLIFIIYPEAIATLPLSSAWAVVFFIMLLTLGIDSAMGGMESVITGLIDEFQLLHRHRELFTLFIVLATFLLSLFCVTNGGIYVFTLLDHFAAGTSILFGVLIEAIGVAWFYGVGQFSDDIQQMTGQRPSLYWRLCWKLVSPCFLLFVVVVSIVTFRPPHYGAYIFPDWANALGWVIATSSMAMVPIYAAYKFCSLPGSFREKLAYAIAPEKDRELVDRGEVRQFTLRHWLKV
# T3 sequence (P23975 whole entry): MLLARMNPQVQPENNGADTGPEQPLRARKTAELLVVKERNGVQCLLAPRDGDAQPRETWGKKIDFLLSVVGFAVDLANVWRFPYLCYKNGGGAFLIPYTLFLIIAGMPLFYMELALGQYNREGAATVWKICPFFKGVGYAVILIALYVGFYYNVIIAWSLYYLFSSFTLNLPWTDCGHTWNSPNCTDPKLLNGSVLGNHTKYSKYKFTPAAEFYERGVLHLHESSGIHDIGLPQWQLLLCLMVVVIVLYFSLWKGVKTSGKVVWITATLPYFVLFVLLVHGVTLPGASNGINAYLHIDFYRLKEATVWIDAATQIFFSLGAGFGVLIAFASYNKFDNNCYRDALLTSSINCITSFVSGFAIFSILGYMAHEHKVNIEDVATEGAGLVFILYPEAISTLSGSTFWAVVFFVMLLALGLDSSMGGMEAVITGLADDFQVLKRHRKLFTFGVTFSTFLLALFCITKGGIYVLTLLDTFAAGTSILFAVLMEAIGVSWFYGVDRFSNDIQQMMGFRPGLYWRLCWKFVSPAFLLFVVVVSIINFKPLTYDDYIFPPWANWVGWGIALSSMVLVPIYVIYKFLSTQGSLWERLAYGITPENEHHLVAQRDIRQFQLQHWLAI
# T1 sequence (P31645 whole entry): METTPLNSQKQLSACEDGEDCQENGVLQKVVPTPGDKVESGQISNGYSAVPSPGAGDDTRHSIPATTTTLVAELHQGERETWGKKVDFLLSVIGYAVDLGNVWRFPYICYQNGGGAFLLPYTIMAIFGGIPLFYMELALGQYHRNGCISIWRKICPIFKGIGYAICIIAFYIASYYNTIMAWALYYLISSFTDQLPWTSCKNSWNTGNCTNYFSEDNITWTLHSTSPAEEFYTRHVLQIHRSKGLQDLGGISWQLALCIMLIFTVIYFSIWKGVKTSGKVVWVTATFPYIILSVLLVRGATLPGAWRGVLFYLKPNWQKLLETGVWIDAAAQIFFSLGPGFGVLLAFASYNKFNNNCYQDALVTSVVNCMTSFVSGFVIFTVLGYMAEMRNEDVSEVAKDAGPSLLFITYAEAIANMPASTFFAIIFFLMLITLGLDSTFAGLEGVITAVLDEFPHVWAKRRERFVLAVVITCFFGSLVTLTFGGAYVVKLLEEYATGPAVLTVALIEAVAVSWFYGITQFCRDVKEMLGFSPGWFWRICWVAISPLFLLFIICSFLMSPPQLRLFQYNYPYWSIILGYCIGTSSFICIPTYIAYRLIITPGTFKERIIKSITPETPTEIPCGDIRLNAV
SMILES,inhibition at 1 µM [1] [%],inhibition at 1 µM [2] [%],"inhibition at 1 µM [3, 4] [%]","inhibition at 1 µM [3, 5] [%]"
"CS(=O)(=O)C[C@@]1(O)CNCCO[C@@H]1c1ccc(Cl)c(F)c1 (racemic) [Example 538, (6RS,7RS)-7-(4-chloro-3-fluorophenyl)-6-[(methylsulfonyl)methyl]-1,4-oxazepan-6-ol monohydrochloride]",91,38,102,–
"O=C(O)c1cccn(C[C@@H]2CNCCO[C@H]2c2ccc(Cl)c(F)c2)c1=O (racemic) [Example 588, 1-{[(6RS, 7SR)-7-(4-chloro-3-fluoro-phenyl)-1,4-oxazepan-6-yl]methyl}-2-oxo-1,2-dihydro-pyridine-3-carboxylic acid]",43,12,104,–
"CO[C@@]1(CNC(C)=O)CNCCO[C@H]1c1ccc(Cl)c(F)c1 (relative stereo) [Example 561, N-{[(6R*,7S*)-7-(4-chloro-3-fluorophenyl)-6-methoxy-1,4-oxazepan-6-yl]methyl}acetamide monohydrochloride (retention time long)]",46,1,98,–
"CC(=O)N(C)C[C@]1(O)CNCCO[C@H]1c1ccc(Cl)c(F)c1 (relative stereo) [Example 563, N-{[(6R*,7S*)-7-(4-chloro-3-fluorophenyl)-6-hydroxy-1,4-oxazepan-6-yl]methyl}-N-methylacetamide monohydrochloride (retention time short)]",87,2,103,–
"O=c1ccccn1C[C@@H]1CNCCO[C@H]1c1ccc(Cl)c(F)c1 [Example 42, 1-{[(6S,7R)-7-(4-chloro-3-fluorophenyl)-1,4-oxazepan-6-yl]methyl}pyridin-2(1H)-one monohydrochloride]",87,47,102,–
"OC[C@@H](O)[C@@H]1OCCNC[C@H]1c1ccc(Cl)c(Cl)c1 [Example 46, (1R)-1-[(6R,7R)-6-(3,4-dichlorophenyl)-1,4-oxazepan-7-yl]ethane-1,2-diol monohydrochloride]",70,27,104,–
"OC[C@@]1(c2ccc(Cl)c(Cl)c2)CCNCCO1 [Example 47, [(7S)-7-(3,4-dichlorophenyl)-1,4-oxazepan-7-yl]methanol monohydrochloride]",82,9,–,99
"OCC1CNCCOC1c1ccc(Cl)c(Cl)c1 (stereo not drawn) [Example 48, [(6R*,7R*)-7-(3,4-dichlorophenyl)-1,4-oxazepan-6-yl]methanol monohydrochloride (retention time short)]",98,22,–,99

# Now from value to compound, other results behind:
inhibition at 1 µM [1] [%],inhibition at 1 µM [2] [%],"inhibition at 1 µM [3, 4] [%]",SMILES,"inhibition at 1 µM [3, 5] [%]"
64,2,91,"CO[C@]1(CNS(C)(=O)=O)CNCCO[C@@H]1c1ccc(Cl)c(Cl)c1 (racemic) [Example 523, N-{[(6RS,7SR)-7-(3,4-dichlorophenyl)-6-methoxy-1,4-oxazepan-6-yl]methyl}methanesulfonamide monohydrochloride]",–
56,24,105,"Cc1ccc([C@H]2OCCNC[C@@H]2CNS(C)(=O)=O)cc1Cl (relative stereo) [Example 409, N-{[(6R,7S)-7-(3-chloro-4-methylphenyl)-1,4-oxazepan-6-yl]methyl}methanesulfonamide monohydrochloride]",–
84,75,96,"CS(=O)(=O)NC[C@@H]1CNCCO[C@H]1c1ccc(Cl)c(Cl)c1 [Example 34, N-{[(6S,7R)-7-(3,4-dichlorophenyl)-1,4-oxazepan-6-yl]methyl}methanesulfonamide monohydrochloride]",–
86,63,99,"NS(=O)(=O)NC[C@@H]1CNCCO[C@H]1c1ccc(Cl)c(Cl)c1 [Example 35, N-{[(6S,7R)-7-(3,4-dichlorophenyl)-1,4-oxazepan-6-yl]methyl}sulfamide monohydrochloride]",–
